Experiments:
[1] = pH-solubility profile of drug substance; assay type: physicochemical; settings: pH = 8.2; mono-hydrochloride salt form
[2] = pKa of drug substance; assay type: physicochemical; settings: mono-hydrochloride salt form
[3] = logD of drug substance; assay type: physicochemical; settings: mono-hydrochloride salt form
[4] = clinical; settings: human, in vivo; for AUC(0-inf): AUC[0-inf] (ng · h/mL) GM; for AUC(0-t): AUC[0-t] (ng · h/mL) GM; for Cmax: Cmax (ng/mL) GM
Excerpt: BHV3500-101 is a completed Phase 1, single-center, placebo-controlled, randomized, double-blind, sequential SAD study. This study consisted of up to 11 cohorts.
In total, 41 subjects were included in the PK analyses.

[5] = Phase 1 multiple ascending dose (MAD) study, intranasal, pharmacokinetics; design: species or system human; settings: in vivo
Description: A Phase 1, single-center, randomized, double-blind, placebo-controlled, sequential multiple ascending dose (MAD) study with 2 alternate dosing arms was conducted. […] The MAD portion of the study consists of 4 cohorts, with a maximum dose of 20 mg administered once daily for up to 14 days in 3 cohorts, and 20 mg administered twice daily for up to 8 days in the fourth cohort.
In addition to the 4 MAD cohorts, there were 2 alternate dosing cohorts, each consisting of 1 day dosing. The first alternate dosing cohort assessed the effect of 2 sequential administrations of 20 mg (20 mg spray [100 μL of 200 mg/mL] in alternate nostrils); with a 30 minute interval between administrations. A 2nd alternate dosing cohort assessed the effect of 2 sequential administrations of 20 mg (20 mg spray [100 μL of 200 mg/mL] in alternate nostrils); with a nose blow and 5 minute interval between administrations.
The PK data were collected from subjects in Cohorts 1 to 4.

[6] = Phase 2/3 trial BHV3500-201 (Study 201), safety, adverse events and liver function tests; assay type: in vivo, human
Excerpt: The majority (>80%) of AEs were mild in intensity.

[7] = human, inhaled or intranasal, 5 mg
[8] = human, inhaled or intranasal, 10 mg
[9] = human, inhaled or intranasal, 20 mg

Cc1cc(C[C@@H](NC(=O)N2CCC(c3cc4ccccc4[nH]c3=O)CC2)C(=O)N2CCN(C3CCN(C)CC3)CC2)cc2cn[nH]c12 [Zavegepant, (R)—N-(3-(7-methyl-1H-indazol-5-yl)-1-(4-(1-methylpiperidin-4-yl)piperazin-1-yl)-1-oxopropan-2-yl)-4-(2-oxo-1,2-dihydroquinolin-3-yl)piperidine-1-carboxamide]
pH-solubility profile [1]: 105 mg/mL at pH = 8.2
pKa [2]: 4.8
logD [3]: 1.21
median Tmax, range across doses [4]: 32.4 to 46.2 min
median t1/2, range across doses [4]: 150 to 264 min
AUC(0-inf) ([4]; inhaled or intranasal, 1 mg): 3.5 ng·h/mL
AUC(0-t) ([4]; inhaled or intranasal, 1 mg): 2.34 ng·h/mL
Cmax ([4]; inhaled or intranasal, 1 mg): 1.34 ng/mL
Tmax ([4]; inhaled or intranasal, 1 mg, Tmax (h) Median): 57.6 min
half-life ([4]; inhaled or intranasal, 1 mg, t1/2 el (h) Median): 98.4 min
AUC(0-inf) ([4]; inhaled or intranasal, 3 mg): 9.75 ng·h/mL
AUC(0-t) ([4]; inhaled or intranasal, 3 mg): 7.85 ng·h/mL
Cmax ([4]; inhaled or intranasal, 3 mg): 3.68 ng/mL
Tmax ([4]; inhaled or intranasal, 3 mg, Tmax (h) Median): 46.8 min
half-life ([4]; inhaled or intranasal, 3 mg, t1/2 el (h) Median): 134 min
AUC(0-inf) ([4]; inhaled or intranasal, 5 mg): 20.9 ng·h/mL
AUC(0-t) ([4]; inhaled or intranasal, 5 mg): 18.8 ng·h/mL
Cmax ([4]; inhaled or intranasal, 5 mg): 7.8 ng/mL
Tmax ([4]; inhaled or intranasal, 5 mg, Tmax (h) Median): 36 min
half-life ([4]; inhaled or intranasal, 5 mg, t1/2 el (h) Median): 142 min
Tmax (h) Median ([4]; inhaled or intranasal, 10 mg): 0.54 h
AUC(0-inf) ([4]; inhaled or intranasal, 10 mg): 28.5 ng·h/mL
AUC(0-t) ([4]; inhaled or intranasal, 10 mg): 26.2 ng·h/mL
Cmax ([4]; inhaled or intranasal, 10 mg): 13.4 ng/mL
Tmax ([4]; inhaled or intranasal, 10 mg, Tmax (h) Median): 32.4 min
half-life ([4]; inhaled or intranasal, 10 mg, t1/2 el (h) Median): 175 min
Tmax ([4]; inhaled or intranasal, Tmax (h) Median): 46.2 min
half-life ([4]; inhaled or intranasal, t1/2 el (h) Median): 143 min
Tmax ([4]; median Tmax, range across doses): 32.4 to 57.6 min
half-life ([4]; median t1/2, range across doses): 96 to 282 min
half-life ([5]; human, 20 mg): 3.69 to 4.93 h
Tmax ([5]; human, Tmax): ~30 min
AUC [5, 7]: 20.7 ng·h/mL
AUC0-24 (ng*h/mL) geometric mean [5, 7]: 24.95 ng·h/mL
AUC0-τ ss (ng*h/mL) geometric mean [5, 7]: 20.66 ng·h/mL
AUC(0-inf) [5, 7]: 22.4 ng·h/mL
Cl/F (L/h) Mean [5, 7]: 293.27 L/h
Tmax (h) Mean [5, 7]: 0.52 h
Vd/F [5, 7]: 1570 L
half-life [5, 7]: 3.69 h
AUC(0-t) ([5]; human, inhaled or intranasal, 5 mg, AUC0-24 (ng*h/mL) geometric mean): 24.9 ng·h/mL
AUC(0-t) ([5]; human, inhaled or intranasal, 5 mg, AUC0-t (ng*h/mL) geometric mean): 19 ng·h/mL
Tmax ([5]; human, inhaled or intranasal, 5 mg, Tmax (h) Mean): 31.2 min
AUC [5, 8]: 32.9 ng·h/mL
AUC0-24 (ng*h/mL) geometric mean [5, 8]: 29.61 ng·h/mL
AUC0-τ ss (ng*h/mL) geometric mean [5, 8]: 32.85 ng·h/mL
AUC(0-inf) [5, 8]: 33.9 ng·h/mL
Cl/F (L/h) Mean [5, 8]: 341.09 L/h
Tmax (h) Mean [5, 8]: 0.57 h
Vd/F [5, 8]: 1660 L
half-life [5, 8]: 3.84 h
AUC(0-t) ([5]; human, inhaled or intranasal, 10 mg, AUC0-24 (ng*h/mL) geometric mean): 29.6 ng·h/mL
AUC(0-t) ([5]; human, inhaled or intranasal, 10 mg, AUC0-t (ng*h/mL) geometric mean): 30.9 ng·h/mL
Tmax ([5]; human, inhaled or intranasal, 10 mg, Tmax (h) Mean): 26.4 min
AUC [5, 9]: 91 ng·h/mL
AUC0-24 (ng*h/mL) geometric mean [5, 9]: 80.09 ng·h/mL
AUC0-τ ss (ng*h/mL) geometric mean [5, 9]: 90.98 ng·h/mL
AUC(0-inf) [5, 9]: 92.4 ng·h/mL
Cl/F (L/h) Mean [5, 9]: 254.40 L/h
Tmax (h) Mean [5, 9]: 0.56 h
Vd/F [5, 9]: 1740 L
AUC(0-t) ([5]; human, inhaled or intranasal, 20 mg, AUC0-24 (ng*h/mL) geometric mean): 80.1 ng·h/mL
AUC(0-t) ([5]; human, inhaled or intranasal, 20 mg, AUC0-t (ng*h/mL) geometric mean): 87.9 ng·h/mL
Cmax ([5]; human, inhaled or intranasal, 20 mg, Cmax (ng/mL) geometric mean): 34.7 ng/mL
Tmax ([5]; human, inhaled or intranasal, 20 mg, Tmax (h) Mean): 34.2 min
half-life ([5]; human, inhaled or intranasal, 20 mg once daily intranasal (Cohort 3), Day 14, read-out: T1/2 el (h) Mean (converted)): 4.93 h
concentration at 0.5 h ([5]; human, 5 mg, Day 14, nominal time 0.500 h, read-out: Plasma Concentrations (ng/mL) Mean): 8.08 ng/mL
urine concentrations [5]: below the limit of quantitation
ALT or AST > 3 × ULN (subjects) ([6]; 5 mg (N = 388)): 0
Bilirubin > 2 × ULN (subjects) ([6]; 5 mg (N = 388)): 0
ALT or AST > 3 × ULN (subjects) ([6]; 10 mg (N = 394)): 0
Bilirubin > 2 × ULN (subjects) ([6]; 10 mg (N = 394)): 0
ALT or AST > 3 × ULN (subjects) ([6]; 20 mg (N = 403)): 0
Bilirubin > 2 × ULN (subjects) ([6]; 20 mg (N = 403)): 0
ALT or AST > 3 × ULN (subjects) ([6]; All zavegepant (N = 1185)): 0
Bilirubin > 2 × ULN (subjects) ([6]; All zavegepant (N = 1185)): 0
hepatotoxicity signal (AST or ALT >3xULN, total bilirubin >2xULN) ([6]; any treatment arm): no signal of hepatoxicity
tolerability and safety ([6]; intranasal, single dose trial): well tolerated and safe
AEs mild in intensity ([6]; single dose trial): > 80%

Reference: patent publication US20220401439A1, “INTRANASAL PHARMACEUTICAL COMPOSITIONS OF CGRP INHIBITORS” (Biohaven Pharmaceutical Holding Company Ltd., priority 2019, published 2022)
